Assay results: article PMC5897267 (EJNMMI Research, 2018)
Several values for one entry are separate records, joined by “and”; a condition that tells them apart may be missing. Identical values can stand only once.

What was measured:
[1] = molecular target: T1, PSMA (Homo sapiens, UniProt Q04609); assay: Competitive binding assay (IC50) on LNCaP cells with ([125I]I-BA)KuE as radioligand; details: cold reference ligands, ([125I]I-BA)KuE 0.2 nM, 1 h, 4°C, mean ± SD, n = 3, read-out: PSMA affinity (IC50)
T1 construct: host or cells: LNCaP cells
Experimental: Competitive binding experiments (IC50) were carried out using PSMA-expressing LNCaP cells and ([^125I]I-BA)KuE as standard radioligand. […] Data represent means ± SD (n = 3).
Determination of the PSMA binding affinities (IC50)
The culture medium was removed and the cells were washed with 500 µL of HBSS (Hank´s balanced salt solution, Biochrom Berlin, Germany, containing 1% bovine serum albumin (BSA)). Before the experiment the cells were left to equilibrate in 200 µL HBSS (1% BSA) for 15 min on ice. Afterwards, 25 µL/well of solutions containing the respective unlabeled inhibitor in increasing concentrations (10- 10 – 10^-4 M in HBSS (1% BSA)) or either HBSS (1% BSA) as control were added, followed by the addition of 25 µL of ([125I]I-BA)KuE as a competitor. The final concentration of the radioiodinated inhibitor was 0.2 nM in all assays. For each concentration the experiments were performed in triplicates. Incubation of the cells was carried out for 60 min on ice and terminated by removal of the assay medium. The cells were thoroughly rinsed with 250 µL of HBSS and the washing medium was combined with the supernatant of the previous step, representing the amount of free radioligand.
Then, the cells were lysed using 250 µL of 1 N NaOH, and the lysat was transferred to vials and combined with 250 µL of HBSS, which was used for an additional washing step (bound activity). The Quantification of the amount of free and bound radioactivity was performed in a γ-counter.
performed using LNCaP cells and ([125I]I-BA)KuE (0.2 nM) as radioligand (1 h, 4°C)

[2] = system: PSMA-expressing LNCaP cells; assay: Internalization of the 18F-labeled ligands, normalized to ([125I]I-BA)KuE; format: cell-based, human; details: for Specific Internalization (1h; % of reference): LNCaP cells, 37°C, corrected for non-specific internalization (100 μM PMPA), reference ([125I]I-BA)KuE, mean ± SD, n = 3; for fold higher internalization rate than the reference ligands: versus 18F-DCFPyl and 18F-PSMA-1007, PSMA-expressing cells
Experimental: PSMA overexpressing LNCaP cells (CLS: 300265) were cultured in DMEM/Nutrition Mix F-12 with Glutamax-I (1:1) (Invitrogen, Life Technologies, Darmstadt, Germany) supplemented with 10% FCS and were maintained at 37 °C in a 5% CO2/humidified air atmosphere. For IC50 determination, approximately 150,000 cells/well were seeded on 24-well plates 1 day prior to the experiment. For internalization studies, 125,000 cells/well were seeded in PLL-coated 24-well plates. For cell counting, a Countesse automated cell counter (Invitrogen, Carlsbad, USA) was used.
PSMA affinity and internalization kinetics of the ^18F-labeled compounds were determined according to a previously published protocol. A detailed description is provided online in the supporting information.
Competitive binding experiments (IC50) were carried out using PSMA-expressing LNCaP cells and ([^125I]I-BA)KuE as standard radioligand. Internalization kinetics of the ^18F-labeled derivatives were also performed using PSMA-expressing LNCaP cells and ([^125I]I-BA)KuE (0.2 nM) as an internal reference. Data were corrected for non-specific internalization in the presence of 100 μM 2-phosphonomethyl pentanedioic acid (PMPA) and normalized to the specific internalization observed for the radioiodinated reference compound assayed in a parallel experiment. Data represent means ± SD (n = 3).
Internalization studies of the 18F-labeled EuE-based inhibitors, 18F-DCFPyl and 18F-PSMA-1007 were performed according to a previously published protocol. Briefly, after washing the cells with 0.5 mL DMEM-F12 (5% BSA), the cells were preconditioned for a minimum of 15 min with 200 µL DMEM-F12 (5% BSA) at 37°C. Then, 25 µL (per well) of either assay medium (total internalization) or of a 100 µM 2-PMPA solution (non-specific internalization) were added, followed by addition of 25 µL of assay medium containing the respective 18F-labeled PSMA inhibitor or ([125I]I-BA)KuE (0.2 nM). The internalization kinetics were determined by cell incubation at 37°C for 5, 15, 30, and 60 min, respectively. All experiments were carried out in triplicate for each time point (control and blocking).
Incubation was terminated by placing the plate on ice and by removal of the incubation medium. The cells were subsequently rinsed with 250 µL DMEM-F12 (5% BSA) and combined with the supernatant of the previous step (amount of free radioligand). To remove receptor surface-bound radioactivity, the cells were incubated with 250 µL of ice cold PMPA in PBS (10 µM) for 10 min. After removal of the supernatant, the cells were thoroughly rinsed with another 250 µL of ice-cold PBS and both fractions were combined (amount of receptor-bound radioactivity). By incubation of the cells with 250 µL 1N NaOH (5 min), the internalized activity was released, the suspension transferred to vials, and combined with 250 µL of 1N NaOH used for subsequent rinsing of the wells. Quantification of the amount of free, PMPA-releasable, and internalized activity was performed in a γ-counter. For analysis of the internalization, data for both the 18F-labeled compound of interest and for the reference ([125I]I-BA)KuE in the same experiment were first corrected by the amount of non-specific internalization (adding of 100 µM PMPA), respectively, and then each was normalized to the amount of internalized ligand in the absence of unlabeled competitor (100%). To eliminate the influence of cell count and cell viability on the absolute internalization values, data (60 min) are expressed as the ratio of the internalization of the compound of interest to the internalization (60 min) found for ([125I]I-BA)KuE in the same experiment (Fig 2, Fig S3). Data represent means ± SD (n=3).
18F-PSMA-1007 and reference ([125I]I-BA)KuE into LNCaP cells (37°C) (mean ± SD [n = 3]) *Specific internalization of the reference compound ([125I]I-BA)KuE assayed in a parallel experiment and used for data […]
The results of the metabolite analyses of the 18F-labeled EuE-based inhibitors, as well as of 18F-PSMA- […]

[3] = molecular target: T2, human serum albumin (HSA) (Homo sapiens, UniProt P02768); assay: Plasma protein binding on Chiralpak HSA column; format: in vitro ADME
T2 construct: purchased Chiralpak (manufacturer not given)
Experimental: Plasma protein binding of the tracers was determined using an analytical Chiralpak human serum albumin (HSA) column (50 × 3 mm, 5 μm) according to a previously published protocol with minor changes.

[4] = system: LNCaP-tumor-xenografts; assay: Biodistribution in LNCaP-tumor-bearing SCID mice; format: in vivo; details: 1 h p.i., mean ± SD, n = 4
Experimental: To induce LNCaP tumor growth, male CB-17 SCID mice (6–8 weeks, Charles River Laboratories, Sulzfeld, Germany) were inoculated subcutaneously onto the right shoulder with LNCaP cells (approximately 1 × 10^7 cells/200 μL DMEM/Nutrition Mix F-12 with Glutamax-I (1:1) medium and Matrigel (BD Biosciences, Germany) (1:1)). After 3–5 weeks, tumor size reached 4–8 mm in diameter, and the animals were used for in vivo studies.
About 0.8–1 MBq of the ^18F-labeled tracer were injected into the tail vein of the mice (n = 8) under isoflurane anesthesia. Animals were sacrificed at 1 and 2 h p.i.; the organs of interest were dissected, and the activity in the weighed tissues samples was quantified using a γ-counter.
The high plasma protein binding and therefore delayed blood pool clearance of ^18F-PSMA-1007 leads to low tumor-to-blood and tumor-to-spleen ratios, especially 2 h p.i. (Fig. 5; Additional file 1: Figure S5).
Data are given in % IA/g are means ± SD (n = 4 animals per group and time point)

[5] = system: mCRPC patient; assay: PET/MR imaging of a mCRPC patient (compassionate use); format: in vivo, human; details: PET/MR 62 min after injection of 158 MBq
Experimental: Based on the promising preclinical results obtained for EuE-k-^18F-FBOA (1) a mCRPC patient (PSA 392 ng/ml) was imaged under compassionate use. The agent was applied in compliance with The German Medicinal Products Act, Arzneimittelgesetz (AMG) §13 2b, and in accordance with the responsible regulatory body (Government of Oberbayern). The patient underwent PET/MR imaging 62 min after injection of 158 MBq of EuE-k-^18F-FBOA (Fig. 6).
Images show the typical biodistribution of PSMA ligands with minimal blood pool retention.

[6] = CD-1, mouse, in vivo, 1 h
Experimental: (§14) Approximately 60–70 MBq of the ^18F-labeled inhibitors were injected into the tail vein of severe combined immunodeficiency (SCID) mice. The animals were sacrificed 1 h p.i., blood and urine were collected, and kidneys were dissected and after freezing with liquid nitrogen, homogenized with a ball mill and extracted with 1 mL PBS containing 200 nmol PMPA. After centrifugation (15,000g) and ultrafiltration, the extracts were analyzed by reversed phase high-performance liquid chromatography (RP-HPLC). Blood samples were centrifuged to separate the plasma from the blood cells. Additionally, plasma proteins were removed by precipitation with acetonitrile (10 min, on ice), subsequent centrifugation and ultrafiltration. The blood extracts and the urine samples were analyzed using RP-HPLC. For RP-HPLC, a Nucleosil 100 C18 (5 μm, 125 × 4.0) column and different HPLC-systems were used (EuE-based inhibitors: flow rate: 2 mL/min; Gradient: 0–30% B in 20 min; HPLC-System A (see Additional file 1); ^18F-PSMA-1007: flow rate: 1.5 mL/min; Gradient: 5–55% B in 10 min; HPLC-System B (see Additional file 1); solvent A: 0.1% trifluoroacetic acid (TFA) in water, solvent B: 0.1% TFA in MeCN).

[7] = Metabolite analysis in mice, RP-HPLC of blood, urine and kidney extracts; details: 1 h p.i.
Experimental: as §14

T2 sequence (P02768 25-609): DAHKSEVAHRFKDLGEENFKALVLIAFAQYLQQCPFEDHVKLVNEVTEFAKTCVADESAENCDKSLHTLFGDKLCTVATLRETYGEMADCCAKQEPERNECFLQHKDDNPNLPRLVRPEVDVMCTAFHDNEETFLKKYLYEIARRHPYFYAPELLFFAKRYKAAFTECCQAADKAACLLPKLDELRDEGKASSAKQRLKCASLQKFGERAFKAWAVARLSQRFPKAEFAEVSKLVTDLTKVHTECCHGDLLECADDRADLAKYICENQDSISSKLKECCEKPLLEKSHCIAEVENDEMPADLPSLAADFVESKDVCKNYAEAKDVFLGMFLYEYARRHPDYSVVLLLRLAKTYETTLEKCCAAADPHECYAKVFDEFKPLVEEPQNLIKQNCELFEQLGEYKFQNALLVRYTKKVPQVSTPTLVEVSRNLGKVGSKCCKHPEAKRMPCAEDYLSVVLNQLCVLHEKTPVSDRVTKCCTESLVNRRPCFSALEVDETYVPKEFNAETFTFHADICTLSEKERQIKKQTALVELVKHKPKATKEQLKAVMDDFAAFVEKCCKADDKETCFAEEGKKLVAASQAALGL
T1 sequence (Q04609 whole entry): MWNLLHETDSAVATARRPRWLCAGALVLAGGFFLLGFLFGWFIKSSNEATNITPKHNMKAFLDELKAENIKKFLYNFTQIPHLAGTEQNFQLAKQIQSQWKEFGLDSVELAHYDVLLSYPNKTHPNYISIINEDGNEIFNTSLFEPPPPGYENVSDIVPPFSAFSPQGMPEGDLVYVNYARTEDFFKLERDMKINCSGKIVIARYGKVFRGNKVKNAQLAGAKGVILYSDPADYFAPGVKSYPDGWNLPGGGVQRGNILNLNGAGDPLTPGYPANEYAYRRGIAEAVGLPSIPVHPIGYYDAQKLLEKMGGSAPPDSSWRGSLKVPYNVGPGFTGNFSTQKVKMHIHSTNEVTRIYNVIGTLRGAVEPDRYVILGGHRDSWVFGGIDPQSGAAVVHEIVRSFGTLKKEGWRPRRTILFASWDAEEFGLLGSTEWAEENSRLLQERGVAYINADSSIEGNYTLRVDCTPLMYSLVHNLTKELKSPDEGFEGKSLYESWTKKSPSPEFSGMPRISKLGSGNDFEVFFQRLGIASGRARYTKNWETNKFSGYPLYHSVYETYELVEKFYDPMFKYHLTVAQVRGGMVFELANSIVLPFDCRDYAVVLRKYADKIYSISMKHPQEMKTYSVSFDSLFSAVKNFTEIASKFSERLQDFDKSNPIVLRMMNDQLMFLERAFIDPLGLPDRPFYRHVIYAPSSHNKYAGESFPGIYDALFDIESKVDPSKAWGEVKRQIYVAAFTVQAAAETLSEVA

With O=C(O)CCC(NC(=O)NC(CCC(=O)NC(CCCCNC(=O)CON=Cc1ccc([18F])cc1)C(=O)O)C(=O)O)C(=O)O (stereo not shown) [EuE-k-^18F-FBOA] the IC50 [1] was 4.2 ± 0.4 nM, the “Specific Internalization (1h; % of reference)” value [2] was 165 ± 4 % of reference and the “fold higher internalization rate than the reference ligands” value [2] was 1.4 fold. The “Human serum albumin binding (plasma protein binding)” value (from here on “Human serum albumin binding”) [3] was 13.4%, the tumor accumulation [4] was 12.7 ± 2.0 % IA/g and the “uptake in bone and lymph node metastases, mean SUVmax” value [5] was 21.6 (range 15.4–28.2). For the same compound, the “uptake in bone and lymph node metastases, mean SUVmean” value [5] was 14.7 (range 9.2–19), the “uptake in the kidneys (SUVmean)” value [5] was 14.0 and the “uptake in the liver (SUVmean)” value [5] was 6.4. For the same compound, the “uptake in the salivary glands (SUVmean)” value [5] was 5.8, the “uptake in the spleen (SUVmean)” value [5] was 6.1 and the “intact tracer in blood, urine and kidneys” value [6] was 100%.
In the case of O=C(O)CCC(NC(=O)NC(CCC(=O)NC(CCCCNC(=O)CCNC(=O)c1ccc([18F])nc1)C(=O)O)C(=O)O)C(=O)O (stereo not drawn) [EuE-k-β-a-^18F-FPyl], the IC50 [1] is reported as 1.1 ± 0.2 nM, the “Specific Internalization (1h; % of reference)” value [2] is reported as 323 ± 2 % of reference and the “fold higher internalization rate than the reference ligands” value [2] is reported as 2.7 fold. The “enhanced internalization into LNCaP cells compared to EuE-k-18F-FBOA” value ([2]; versus EuE-k-18F-FBOA) was “twofold”, the “Human serum albumin binding” value [3] was 12.0% and the tumor accumulation [4] was 13.0 ± 1.0 % IA/g. For the same compound, the “intact tracer in blood, urine and kidneys” value [6] was 100%.
For O=C(O)CCC(NC(=O)NC(CCCCNC(=O)c1ccc([18F])nc1)C(=O)O)C(=O)O (stereo not shown) [^18F-DCFPyl, 2-(3-{1-Carboxy-5-[(6-[18F]fluoro-pyridine-3-carbonyl)-amino]-pentyl}-ureido)-pen tanedioic acid, reference compound], the “Specific Internalization (1h; % of reference)” value [2] was 118 ± 4 % of reference, the “Human serum albumin binding” value [3] was 14.3% and the tumor accumulation [4] was 7.3 ± 1.0 % IA/g.
With O=C(O)CC[C@H](NC(=O)N[C@@H](CCCCNC(=O)[C@H](Cc1ccc2ccccc2c1)NC(=O)c1ccc(CNC(=O)[C@H](CCC(=O)O)NC(=O)[C@H](CCC(=O)O)NC(=O)c2ccc(F)nc2)cc1)C(=O)O)C(=O)O [^18F-PSMA-1007] the IC50 [1] was 4.2 ± 0.5 nM.
With O=C(O)CC[C@H](NC(=O)N[C@@H](CCCCNC(=O)[C@H](Cc1ccc2ccccc2c1)NC(=O)c1ccc(CNC(=O)[C@H](CCC(=O)O)NC(=O)[C@H](CCC(=O)O)NC(=O)c2ccc([18F])nc2)cc1)C(=O)O)C(=O)O [^18F-PSMA-1007] the “Specific Internalization (1h; % of reference)” value [2] was 118 ± 5 % of reference, the “Human serum albumin binding” value [3] was 98% and 97.8% and the tumor accumulation [4] was 7.1 ± 1.5 % IA/g. The “more hydrophilic metabolite, share of total activity in the kidneys” value ([7]; kidneys) was 4% and the “more hydrophilic metabolite, share of total activity in the urine” value ([7]; urine) was 2%.
